# Experimental data taken from PubChem BioAssay (NCI).
# “And” between values parts separate entries of the source, which are not always exact repeats. Identical values can stand only once.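 Each compound was tested at five concentrations against cells in 96-well plates for 48 hours. GI50: concentration for 50% inhibition of growth. At the TGI there is no net growth.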
# Tests used:
# Test in all cases: NCI anticancer screen, dose series, 48 h
# IGROV1 ovarian = test system: IGROV1 ovarian
# MDA-MB-231 breast = test system: MDA-MB-231 breast
# KM12 colon = test system: KM12 colon
# SK-MEL-2 melanoma = test system: SK-MEL-2 melanoma
# NCI-H226 lung = test system: NCI-H226 lung
# DU-145 prostate = test system: DU-145 prostate
# SNB-75 CNS = test system: SNB-75 CNS
# HS 578T breast = test system: HS 578T breast
# HCT-15 colon = test system: HCT-15 colon
# MCF7 breast = test system: MCF7 breast
Structure (SMILES),GI50 (IGROV1 ovarian),TGI (IGROV1 ovarian),GI50 (MDA-MB-231 breast),TGI (MDA-MB-231 breast),TGI (KM12 colon),TGI (SK-MEL-2 melanoma),GI50 (NCI-H226 lung),TGI (NCI-H226 lung),GI50 (DU-145 prostate),TGI (DU-145 prostate),GI50 (SNB-75 CNS),TGI (SNB-75 CNS),GI50 (HS 578T breast),TGI (HS 578T breast),TGI (HCT-15 colon),GI50 (KM12 colon),GI50 (SK-MEL-2 melanoma),GI50 (HCT-15 colon),TGI (MCF7 breast),GI50 (MCF7 breast)
Nc1ncnc2c1ncn2C1OC(CO)C(O)C1O (centres undefined),> 450 µM,> 450 µM,5.91 µM,> 100 µM and 24.6 µM,> 450 µM,> 100 µM and > 450 µM and 75.7 µM,> 100 µM and 213 µM and 25.5 µM,> 373 µM,3.8 µM,82.4 µM and 31.4 µM,11.6 µM,> 100 µM and 331 µM and 38.2 µM,16.2 µM,54.4 µM,> 100 µM and > 450 µM and 62 µM,–,–,–,–,–
c1cc(C2O[C@H]3CCCN3[C@@H]2c2ccncc2)ccn1 (some centres undefined),–,> 100 µM,–,–,> 100 µM,> 100 µM,–,> 100 µM,–,–,–,> 100 µM,–,–,> 100 µM,–,–,–,–,–
CC(C)(C)NC(=O)C12C3C4C1C1C2C3C41I (centres undefined),–,–,–,–,> 100 µM,> 100 µM,–,> 100 µM,–,–,–,–,–,–,> 100 µM,–,–,–,–,–
CCCCC#Cc1c(I)n(C2OC(CO[Si](C)(C)C(C)(C)C)C3OC(C)(C)OC32)c(=O)[nH]c1=O (centres undefined),3.32 µM,15.4 µM,2.44 µM,9.55 µM,24.5 µM,3.58 µM,12.7 µM,25.6 µM,3.48 µM,12.9 µM,12.1 µM,24.9 µM,11.7 µM,39.6 µM,> 100 µM,11.7 µM,1.37 µM,2 µM,–,–
COC(=O)CC[C@@H](NC(=O)C(C)NC(=O)COC1C(O)C(COC(=O)CCCCCCCCCCNC(=O)c2ccc([N+](=O)[O-])c3[nH]c4cc(Br)ccc4c(=O)c23)OC(OCc2ccccc2)C1NC(C)=O)C(N)=O (some centres undefined),–,49.8 µM,–,–,> 100 µM,> 100 µM,–,98 µM,–,–,–,> 100 µM,–,–,> 100 µM,–,–,–,–,–
CC(=O)OCC1OC(n2c(-c3ccc(N)cc3)cc(-c3ccco3)c(C#N)c2=O)C(OC(C)=O)C(OC(C)=O)C1OC(C)=O (centres undefined),–,> 50 µM,–,–,> 50 µM,> 50 µM,–,–,–,–,–,> 50 µM,–,–,> 50 µM,–,–,–,–,–
Cn1c(=O)c2[nH]c(Nc3ccccc3)nc2n(C)c1=O,–,> 10 µM,–,> 10 µM,> 10 µM,–,–,–,–,> 10 µM,–,> 10 µM,–,–,> 10 µM,–,–,–,> 10 µM,–
OCCOCn1nc(-c2ccccc2)nc1-c1cnccn1,–,> 100 µM,–,> 100 µM,> 100 µM,–,–,–,–,> 100 µM,–,> 100 µM,–,–,> 100 µM,–,–,–,> 100 µM,–
COc1cc(OC)cc(-c2n[nH]nc2-c2ccc3c(c2)OCO3)c1,0.432 µM,> 100 µM,0.529 µM,31.5 µM,11.9 µM,55.7 µM,5.15 µM,> 100 µM,0.346 µM,> 100 µM,–,–,0.442 µM,> 100 µM,> 100 µM,0.07 µM,0.245 µM,0.125 µM,> 100 µM,0.0768 µM
CCOc1cccc2cccnc12,–,> 100 µM,–,–,> 100 µM,–,–,> 100 µM,–,–,–,> 100 µM,–,–,–,–,–,–,–,–
CCC(C)CNC1=C(NC(C)=O)C(=O)c2ccccc2C1=O (centres undefined),–,> 100 µM,–,–,> 100 µM,> 100 µM,–,> 100 µM,–,–,–,> 100 µM,–,–,> 100 µM,–,–,–,–,–
O=C(/C=C(\O)C(=O)O)/C=C(\O)c1ccc(Cl)cc1,–,> 100 µM,–,–,> 100 µM,> 100 µM,–,> 100 µM,–,–,–,> 100 µM,–,–,> 100 µM,–,–,–,–,–
COC(=O)c1ccc2n[se]nc2c1,–,> 100 µM,–,–,> 100 µM,> 100 µM,–,–,–,–,–,> 100 µM,–,–,> 100 µM,–,–,–,–,–
O=C(CC1Sc2ccccc2NC1=O)Nc1ccc([N+](=O)[O-])cc1[N+](=O)[O-] (centres undefined),–,39.1 µM,–,–,59.5 µM,46.5 µM,–,42.6 µM,–,–,–,38.7 µM,–,–,–,–,–,–,–,–
Cc1cccc2c1NC(c1c(C)[nH]c3ccccc13)C2 (centres undefined),–,> 100 µM,–,–,> 100 µM,> 100 µM,–,> 100 µM,–,–,–,> 100 µM,–,–,> 100 µM,–,–,–,–,–
CC(CC(C)[C@H]1CCC2[C@H]3C(CC[C@@]21C)[C@@]1(C)CCC(O)C[C@H]1C[C@@H]3O)C(=O)O (some centres undefined),–,> 100 µM,–,> 100 µM,> 100 µM,> 100 µM,–,> 100 µM,–,> 100 µM,–,> 100 µM,–,–,> 100 µM,–,–,–,> 100 µM,–
CCSc1sc(-c2ccc(C)cc2)nc1[P+](c1ccccc1)(c1ccccc1)c1ccccc1,–,–,0.259 µM,1.14 µM,1.16 µM,0.805 µM,–,–,0.346 µM,1.35 µM,0.192 µM,0.802 µM,0.394 µM,2.05 µM,1.18 µM,0.281 µM,0.273 µM,0.315 µM,–,–
COC(=O)C1=C(SC)SC2(C(=O)OC)C3C=C(C)C4C(N13)C42C(=O)OC (centres undefined),–,> 100 µM,–,–,–,> 100 µM,–,> 100 µM,–,–,–,> 100 µM,–,–,> 100 µM,–,–,–,–,–
CC1=NN(C(=O)CC(=O)Nc2ccccc2)C(=O)C1N=Nc1ccc(S(N)(=O)=O)cc1 (centres undefined),–,> 100 µM,–,–,> 100 µM,> 100 µM,–,> 100 µM,–,–,–,> 100 µM,–,–,> 100 µM,–,–,–,–,–
COC(=O)C1=C(O)C(C(=O)OC)[C@@]2(O)[C@@H](C(=O)OC)C(c3ccccc3C(F)(F)F)C[C@@H]1[C@@H]2C(=O)OC (some centres undefined),–,–,7.99 µM,22.4 µM,32.8 µM,36.4 µM,–,–,3.23 µM,10.9 µM,0.0935 µM,1.53 µM,3.87 µM,> 100 µM,3.11 µM,16.9 µM,19.7 µM,1.4 µM,12.1 µM,2.99 µM
N#CC1=C(N)NC(=S)NC1c1ccc(-c2ccc(-c3nc4ccccc4s3)cc2)o1 (centres undefined),32.1 µM,> 50 µM,16.3 µM,> 50 µM,> 50 µM,> 50 µM,–,–,42.3 µM,> 50 µM,–,–,> 50 µM,> 50 µM,> 50 µM,17 µM,41 µM,17.5 µM,> 50 µM,9.71 µM
